Results taken from patent US8658668B2, “PI3 kinase/mTOR dual inhibitor” (Eli Lilly and Company, priority 2011, dated 2014).

Columns and labels:
Format in all cases: cell-based
A2780 = experiment: Cell proliferation assay (CellTiter-Glo), A2780; settings: Homo sapiens, A2780, 72 h
Description: (§1) Plate cells in a 96-well plate at 2000 cells/well in 100 μL of cell specific medium (for U87MG use DMEM, 10% FBS, 25 mM 4-(2-hydroxyethyl)-1-piperazineethanesulfonic acid (HEPES), 1.0 mM sodium pyruvate, and 0.1 mM Non Essential Amino Acids (ATCC Cat.#30-2002); for HT1080 use Eagle's MEM, 10% FBS (ATCC Cat.#30-2003); for H1975, A2780, SJSA-1 and 786-O use RPMI 1640, 10% FBS (ATCC Cat.#30-2001); for A204 use McCoy's 5A, 10% FBS (ATCC Cat.#30-2007) except in column 1 use medium only as the blank control. Incubate the plates overnight at 37° C. and 5% CO2. On the next day, prepare compound stocks at 1 mM in DMSO and serially dilute in DMSO in a 96-well round bottom polypropylene plate. Assay compounds at 10 concentrations in duplicate, 4 compounds per plate.
(§2) Transfer 4 μL of the DMSO serial dilutions to a 96 well plate and add 196 μL of culture medium to create a 10× stock for dosing. Gently transfer 11 μL of each dosing stock to the corresponding well of the cell plate resulting in a 0.2% DMSO concentration and a 111 μL final volume. […]
(§3) Prepared the CellTiter-Glo reagent (Promega, Cat: G7571) and add 100 µL to each well after the incubation is complete, homogenize the cells by mixing on an orbital shaker for 2 min and then incubate at RT for 10 min to allow the luminescent signal to stabilize. Record the luminescent raw data with a Wallac Victor V plate reader. […]

A204 = experiment: Cell proliferation assay (CellTiter-Glo), A204; settings: Homo sapiens, A204, 72 h
Description: as §1, §2, §3

[1] = test system: BXF 1228 human tumor xenograft cells; experiment: Oncotest tumor clonogenic assay, BXF 1228; settings: colony formation, Bladder BXF 1228, transitional cell carcinoma, wd, read-out: Absolute IC50
[2] = test system: CXF 1729 human tumor xenograft cells; experiment: Oncotest tumor clonogenic assay, CXF 1729; settings: colony formation, Colon CXF 1729, adeno carcinoma, wd, read-out: Absolute IC50
[3] = test system: CXF 243 human tumor xenograft cells; experiment: Oncotest tumor clonogenic assay, CXF 243; settings: colony formation, Colon CXF 243, adeno carcinoma, pd, read-out: Absolute IC50
[4] = test system: CXF 975 human tumor xenograft cells; experiment: Oncotest tumor clonogenic assay, CXF 975; settings: colony formation, Colon CXF 975, adeno carcinoma, md, read-out: Absolute IC50
[5] = test system: GXF 97 human tumor xenograft cells; experiment: Oncotest tumor clonogenic assay, GXF 97; settings: colony formation, Gastric GXF 97, adeno carcinoma, wd, read-out: Absolute IC50
[6] = test system: LXFA 983 human tumor xenograft cells; experiment: Oncotest tumor clonogenic assay, LXFA 983; settings: colony formation, NSCLC LXFA 983, adeno carcinoma, pd, read-out: Absolute IC50
[7] = test system: MAXF 583 human tumor xenograft cells; experiment: Oncotest tumor clonogenic assay, MAXF 583; settings: colony formation, Mammary MAXF 583, ductual adeno carcinoma, md, read-out: Absolute IC50
[8] = test system: MEXF 462 human tumor xenograft cells; experiment: Oncotest tumor clonogenic assay, MEXF 462; settings: colony formation, Melanoma MEXF 462, amelanotic melanoma, md, read-out: Absolute IC50
[9] = test system: OVXF 899 human tumor xenograft cells; experiment: Oncotest tumor clonogenic assay, OVXF 899; settings: colony formation, Ovary OVXF 899, pap. serous adeno carcinoma, md, read-out: Absolute IC50
[10] = test system: PAXF 546 human tumor xenograft cells; experiment: Oncotest tumor clonogenic assay, PAXF 546; settings: PAXF546, colony formation, Pancreas PAXF 546, inf., mucous squamous cell carcinoma, read-out: Absolute IC50
[11] = test system: PRXF PC3M human tumor xenograft cells; experiment: Oncotest tumor clonogenic assay, PRXF PC3M; settings: PC-3M, colony formation, Prostate PRXF PC3M, adeno carcinoma, metastatic, pd, read-out: Absolute IC50
[12] = test system: SXF 1186 human tumor xenograft cells; experiment: Oncotest tumor clonogenic assay, SXF 1186; settings: colony formation, Sarcoma SXF 1186, osteoblastic osteosarcoma, md, read-out: Absolute IC50

IC50 (A2780): 90 nM | IC50 [1]: 31 nM | IC50 [2]: 176 nM | IC50 [3]: 237 nM | IC50 [4]: 142 nM | IC50 [5]: 101 nM | IC50 [6]: 103 nM | IC50 [7]: 88 nM | IC50 [8]: 156 nM | IC50 [9]: 590 nM | IC50 [10]: 105 nM | IC50 [11]: 208 nM | IC50 [12]: 110 nM
Structure (SMILES): CO[C@@H](C)Cn1c(=O)n(C)c2cnc3ccc(-c4cncc(C(C)(C)O)c4)cc3c21 [Example 1, 8-[5-(1-Hydroxy-1-methylethyl)pyridin-3-yl]-1-[(2S)-2-methoxypropyl]-3-methyl-1,3-dihydro-2H-imidazo[4,5-c]quinolin-2-one]
IC50 (A204): 97 nM
